Measured values published in patent US20080119521A1, “Butyrlcholinesterase Selective Inhibitors” (priority 2004, published 2008).
Read-outs that look alike come from different tables or passages of the source.

Key:
[1] = biological target: T1, BuChE from human serum (Homo sapiens, UniProt P06276); experiment: Butyrylcholinesterase (BuChE) inhibition, Ellman colorimetric method; type: biochemical
T1 construct: 0.1 unit/ml BuChE from human serum; from tissue; host or cells: human serum
Method: Butyrylcholinesterase (BuChE) Inhibition (from Human Serum)
BuChE inhibitory activity was evaluated at 30° C. by the colorimetric method reported by Ellman [Ellman, G. L.; Courtney, K. D.; Andres, B.; Featherstone, R. M. Biochem. Pharmacol. 1961, 7, 88-95]. The assay solution consisted of 0.1 unit/ml BuChE from human serum, 0.1 M sodium phosphate buffer pH 8, 0.3 mM 5,5′-dithiobis (2-nitrobenzoic acid) (DTNB, Ellman's reagent), and 0.5 mM butyrylthiocholine iodide as the substrate of the enzymatic reaction. Enzyme activity was determined by measuring the absorbance at 405 nm during 5 minutes with a microplate reader Digiscan 340T. The tested compounds were preincubated with the enzyme for 10 minutes at 30° C. The reaction rate was calculated with, at least, triplicate measurements. The IC50 is defined as the concentration of each compound that reduces a 50% the enzymatic activity with respect to that without inhibitors.

[2] = biological target: T2, AChE from bovine erythrocytes (Bos taurus, UniProt P23795); experiment: Acetylcholinesterase (AChE) inhibition, Ellman colorimetric method; type: biochemical
T2 construct: 0.2 unit/ml AChE (Sigma Chemical Co. from bovine erythrocytes); purchased Sigma Chemical Co; host or cells: bovine erythrocytes
T2 sequence (P23795 31-614 isoform P23795-2 limits assumed): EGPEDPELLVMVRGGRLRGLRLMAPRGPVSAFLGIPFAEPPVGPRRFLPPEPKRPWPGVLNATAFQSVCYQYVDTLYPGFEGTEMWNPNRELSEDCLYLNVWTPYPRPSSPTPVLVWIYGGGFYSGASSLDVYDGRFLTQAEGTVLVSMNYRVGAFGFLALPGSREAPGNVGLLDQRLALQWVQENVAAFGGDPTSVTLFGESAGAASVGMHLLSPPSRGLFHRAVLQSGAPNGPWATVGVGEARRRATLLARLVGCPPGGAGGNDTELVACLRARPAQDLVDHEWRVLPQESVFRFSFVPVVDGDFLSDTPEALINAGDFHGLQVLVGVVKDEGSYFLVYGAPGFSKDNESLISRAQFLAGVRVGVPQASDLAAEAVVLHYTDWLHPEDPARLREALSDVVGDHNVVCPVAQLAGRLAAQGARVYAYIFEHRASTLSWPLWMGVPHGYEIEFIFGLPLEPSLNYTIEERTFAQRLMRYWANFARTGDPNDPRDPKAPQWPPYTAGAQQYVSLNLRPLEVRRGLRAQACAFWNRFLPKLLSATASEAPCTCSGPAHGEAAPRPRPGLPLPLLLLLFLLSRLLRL
Method: Acetylcholinesterase (AChE) Inhibition (from Bovine Erythrocytes)
AChE inhibitory activity was evaluated at 30° C. by the colorimetric method reported by Ellman [Ellman, G. L.; Courtney, K. D.; Andres, B.; Featherstone, R. M. Biochem. Pharmacol. 1961, 7, 88-95]. The assay solution consisted of 0.1 M phosphate buffer pH 8, 0.3 mM 5,5′-dithiobis (2-nitrobenzoic acid) (DTNB, Ellman's reagent), 0.2 unit/ml AChE (Sigma Chemical Co. from bovine erythrocytes), and 0.5 mM acetylthiocholine iodide as the substrate of the enzymatic reaction. The compounds tested were added to the assay solution and pre incubated with the enzyme for 5 min at 30° C. After that period, the substrate was added. The absorbance changes at 405 nm were recorded for 5 min with a microplate reader Digiscan 340T, the reaction rates were compared, and the percent inhibition due to the presence of test compounds was calculated. The reaction rate was calculated with, at least, triplicate measurements, and the percent inhibition due to the presence of test compound was calculated relative to the compound-free control. The compound concentration producing 50% of AChE inhibition (IC50) was determined.

[3] = tested on: human neuroblastoma cell line SH-SY5Y; experiment: Toxicity measurement, LDH release cytotoxicity; type: cell-based; settings: SH-SY5Y cells, 24 hours exposure
Method: The cytotoxicity effect of the molecules was tested in the human neuroblastoma cell line SH-SY5Y. These cells were cultured in 96-well plates in a 1:1 mixture of Ham's F12 nutrients and essential medium (MEM), supplemented with 10% fetal bovine serum and 1% penicillin/streptomycin, and grown in a 5% CO2 humidified incubator at 37° C.
The cells were plated at 10^4 cells for each well, at least, 48 hours before the toxicity measure. Cells were exposed for 24 hours to the compounds at different concentrations (from 10^−5 to 10^−9), quantitative assessment of cell death was made by measurement of the intracellular enzyme lactate dehydrogenase (LDH) (citotoxicity detection kit, Roche). The quantity of LDH was measured and evaluated in a microplate reader Anthos 2010, at 492 and 620 nm. Controls were taken as 100% viability.

[4] = biological target: AChE peripheral site (Homo sapiens, UniProt P22303); experiment: Propidium competition, fluorescence; type: binding; settings: 5 μM AChE incubated at least 6 hours, 20 μM propidium iodide, 1 mM Tris/HCl pH 8.0
Chain of AChE peripheral site (P22303 32-614): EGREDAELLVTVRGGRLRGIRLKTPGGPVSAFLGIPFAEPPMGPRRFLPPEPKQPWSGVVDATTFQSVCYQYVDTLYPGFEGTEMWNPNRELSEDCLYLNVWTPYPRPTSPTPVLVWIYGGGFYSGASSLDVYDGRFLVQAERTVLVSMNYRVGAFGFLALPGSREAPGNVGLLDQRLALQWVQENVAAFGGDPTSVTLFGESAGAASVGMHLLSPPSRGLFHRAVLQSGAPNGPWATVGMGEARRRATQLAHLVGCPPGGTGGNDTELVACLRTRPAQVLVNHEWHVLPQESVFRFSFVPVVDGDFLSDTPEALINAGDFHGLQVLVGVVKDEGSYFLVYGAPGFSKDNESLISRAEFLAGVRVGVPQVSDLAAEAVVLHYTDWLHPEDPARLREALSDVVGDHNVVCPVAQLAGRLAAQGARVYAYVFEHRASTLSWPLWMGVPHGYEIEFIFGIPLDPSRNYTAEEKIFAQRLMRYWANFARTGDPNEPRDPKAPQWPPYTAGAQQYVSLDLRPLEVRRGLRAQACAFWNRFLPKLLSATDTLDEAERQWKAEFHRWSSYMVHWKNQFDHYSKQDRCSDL
Method: Fluorescence was measured in a Fluostar optima plate reader (BMG). Measurements were carried out in 100 μl solution volume, in 96-well plates. The buffer used was 1 mM Tris/HCl, pH 8.0. 5 μM AchE was incubated, at least 6 hours, with the molecules at different concentrations. 20 μM propidium iodide was added 10 min before fluorescence measurement. The excitation wavelength was 485 nm, and that of emission, 620 nm.

T1 sequence (P06276 29-602): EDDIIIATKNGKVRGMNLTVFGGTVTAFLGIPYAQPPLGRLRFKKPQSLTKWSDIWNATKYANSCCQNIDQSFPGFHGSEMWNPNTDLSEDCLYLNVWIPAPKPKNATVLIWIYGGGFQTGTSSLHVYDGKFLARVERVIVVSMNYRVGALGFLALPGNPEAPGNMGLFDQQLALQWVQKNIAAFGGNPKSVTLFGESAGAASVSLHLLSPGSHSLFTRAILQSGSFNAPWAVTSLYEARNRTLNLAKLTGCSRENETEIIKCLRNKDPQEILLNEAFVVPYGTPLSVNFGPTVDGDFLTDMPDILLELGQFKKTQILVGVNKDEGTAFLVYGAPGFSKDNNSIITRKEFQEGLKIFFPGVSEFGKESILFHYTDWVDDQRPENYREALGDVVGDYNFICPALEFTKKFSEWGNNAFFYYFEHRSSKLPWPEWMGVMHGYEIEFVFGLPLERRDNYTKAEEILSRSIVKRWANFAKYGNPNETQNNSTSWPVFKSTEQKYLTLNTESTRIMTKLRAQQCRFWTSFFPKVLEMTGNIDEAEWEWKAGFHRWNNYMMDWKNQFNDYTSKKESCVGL

Row | Structure (SMILES) | IC50 [1] [nM] | IC50 [2] [nM] | Toxicity [3] [µM] | Propidium competition [4] [µM] | selectivity with respect to AChE ([1]; BuChE versus AChE) | IC50 ([1]; BuChE from human serum, 30° C., pH 8, 10 min preincubation, butyrylthiocholine iodide substrate, read-out: IC50 BuChE) [nM] | IC50 ([2]; AChE from bovine erythrocytes, 30° C., pH 8, 5 min preincubation, acetylthiocholine iodide substrate, read-out: IC50 AChE) [nM]
1 | O=C(Cc1c[nH]c2ccc(Br)cc12)NCCC1CCN(Cc2ccccc2)CC1 [Compound 4, N-[2-(1-Benzyl-piperidin-4-yl)-ethyl]-2-(5-bromo-1H-indol-3-yl)-acetamide] | 0.25 | 250 | >100 | 1 |  |  | 
2 | O=C(CCc1c[nH]c2ccccc12)NCCC1CCN(Cc2ccccc2)CC1 [Compound 5, N-[2-(1-Benzyl-piperidin-4-yl)-ethyl]-3-(1H-indol-3-yl)-propionamide] | 0.05 | 2000 | >100 | 100 | 5 orders of magnitude |  | 
3 | Cn1cc(CC(=O)NCCC2CCN(Cc3ccccc3)CC2)c2ccccc21 [Compound 2, N-[2-(1-Benzyl-piperidin-4-yl)-ethyl]-2-(1-methyl-1H-indol-3-yl)-acetamide] | 1 | 400 | >100 | 100 |  |  | 
4 | O=C(NCCC1CCN(Cc2ccccc2)CC1)OCCc1c[nH]c2ccccc12 [Compound 7, [2-(1-Benzyl-piperidin-4-yl)-ethyl]-carbamic acid 2-(1H-indol-3-yl)-ethyl ester] |  |  | >100 |  |  | 30 | 1000
5 | Cc1[nH]c2ccccc2c1CC(=O)NCCC1CCN(Cc2ccccc2)CC1 [Compound 3, N-[2-(1-Benzyl-piperidin-4-yl)-ethyl]-2-(2-methyl-1H-indol-3-yl)-acetamide] | 2 | 200 | >100 | 100 |  |  | 
6 | O=C(Cc1c[nH]c2ccccc12)NCCC1CCN(Cc2ccccc2)CC1 [Compound 1, N-[2-(1-Benzyl-piperidin-4-yl)-ethyl]-2-(lH-indol-3-yl)-acetamide] | 0.8 | 200 | >100 | 1 |  |  | 
7 | O=C(CCCc1c[nH]c2ccccc12)NCCC1CCN(Cc2ccccc2)CC1 [Compound 6, N-[2-(1-Benzyl-piperidin-4-yl)-ethyl]-4-(1H-indol-3-yl)-butyramide] | 5 | 300 | >100 | 100 |  |  | 
